In patent US8293774B2, “Optically active (R)-aryloxypropionic acid amides and herbicidal composition comprising same” (Kyung Nong Corporation, priority 2007, dated 2012):

Assays:
[1] = tested on: GLXMA (Glycine max(L.) MERR, soy bean); assay: Weed control test, foliage treatment (Test Example 1, Table 7); settings: in vivo
[2] = tested on: TRZAW (Tritium aestivum L., wheat); assay: as above; settings: in vivo
[3] = tested on: ARTHIS (Arthraxon hispidus (Thunb.) Makino, creek grass); assay: as above; format: in vivo; settings: Arthraxon hispidus, foliar, read-out: Plant damage (herbicidal activity), visually evaluated, ARTHIS; for pest or weed control at 25 g/ha: 0.025 kg/ha; for pest or weed control at 100 g/ha: 0.1 kg/ha; for pest or weed control at 200 g/ha: 0.2 kg/ha
How it was run: (§1)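 Plants are raised from seed in sandy loam in a greenhouse at 20 to 30° C. When barnyard grass reaches the 3-leaf stage, the foliage receives 2,000 l/ha of a diluted emulsion containing compound, acetone and Tween 80. Damage is judged by eye against untreated controls after 10 and 20 days.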

[4] = tested on: DIGSA (Digitaria Sanguinalis (L.) SCOP, large crabgrass); assay: as above; format: in vivo; settings: Digitaria sanguinalis, foliar, read-out: Plant damage (herbicidal activity), visually evaluated, DIGSA; for pest or weed control at 25 g/ha: 0.025 kg/ha; for pest or weed control at 100 g/ha: 0.1 kg/ha; for pest or weed control at 200 g/ha: 0.2 kg/ha
How it was run: as §1

[5] = tested on: ECHOG (Echinoch crus-galli Beauv. var. caudata Kitagawa, barnyard grass); assay: as above; format: in vivo; settings: Echinochloa crus-galli, foliar, 3-leaf stage, read-out: Plant damage (herbicidal activity), visually evaluated, ECHOG; for pest or weed control at 25 g/ha: 0.025 kg/ha; for pest or weed control at 100 g/ha: 0.1 kg/ha; for pest or weed control at 200 g/ha: 0.2 kg/ha
How it was run: as §1

[6] = tested on: PANDI (Panium dichotomiflorum Michx, fall panicum); assay: as above; format: in vivo; settings: Panicum dichotomiflorum, foliar, read-out: Plant damage (herbicidal activity), visually evaluated, PANDI; for pest or weed control at 25 g/ha: 0.025 kg/ha; for pest or weed control at 100 g/ha: 0.1 kg/ha; for pest or weed control at 200 g/ha: 0.2 kg/ha
How it was run: as §1

[7] = tested on: SETVIR (Setaria viridis (L.) Beauv, green foxtail); assay: as above; format: in vivo; settings: Setaria viridis, foliar, read-out: Plant damage (herbicidal activity), visually evaluated, SETVIR; for pest or weed control at 25 g/ha: 0.025 kg/ha; for pest or weed control at 100 g/ha: 0.1 kg/ha; for pest or weed control at 200 g/ha: 0.2 kg/ha
How it was run: as §1

[8] = tested on: SORBI (Andropogon sorghum, common sorgum); assay: as above; format: in vivo; settings: Sorghum bicolor, foliar, read-out: Plant damage (herbicidal activity), visually evaluated, SORBI; for pest or weed control at 25 g/ha: 0.025 kg/ha; for pest or weed control at 100 g/ha: 0.1 kg/ha; for pest or weed control at 200 g/ha: 0.2 kg/ha
How it was run: as §1

[9] = tested on: ZEAMX (Zea mays L., corn); assay: as above; format: in vivo; settings: Zea mays, foliar, read-out: Plant damage (herbicidal activity), visually evaluated, ZEAMX; for plant injury at 25 g/ha: 0.025 kg/ha; for plant injury at 100 g/ha: 0.1 kg/ha; for plant injury at 200 g/ha: 0.2 kg/ha
How it was run: as §1

Rice = assay: Weed control test, 4-leaf stage plants (Test Example 1, Table 8); settings: in vivo
Procedure: (§2) Seeds of rice, wheat, soy bean, barley, corn, common sorgum, barnyard grass, large crabgrass, creek grass, green foxtail and fall panicum were placed in sandy loam in 600 cm^2 pots and covered with soil. After keeping the pots in a greenhouse at 20 to 30° C. allowing growth of the plants to the 3-leaf stage of the barnyard grass, 2,000 l/ha of an emulsion obtained by diluting with water a mixture of 1 part by weight of a test compound, 5 parts by weight of acetone and 1 part by weight of an emulsifying agent (Tween 80, Junsei) was applied to the surface of the foliage of the plants. The plant damage at 10 days and 20 days after the foliage treatment was visually evaluated from the level of 1 to 100% by comparison with the untreated control: […]

Barnyard grass = assay: as above; format: in vivo, Echinoch crus-galli Beauv. var. caudata Kitagawa
Text: as §2, with “[…],” for “After keeping the pots in a greenhouse at 20 to 30° C. allowing growth of the plants to the 3-leaf stage of the barnyard grass,”

[10] = tested on: Echinochloa crus-galli var. crus-galli; assay: Foliage treatment with emulsions, dry rice field conditions (Test Example 2, Table 9); format: in vivo; settings: 150 g a.i./ha; emulsion of Formulation Example 3; division stage 1~2; 20 days after foliage treatment
Text: (§3) Seeds of rice (Nampyung rice) and barnyard grasses (Echinochloa oryzicola and Echinochloa crus-galli var. crus-galli) were placed in sandy loam of pots, covered with soil, and grown in the dry rice field conditions.
(§4) Rice (6˜6.5-leaf stage, plant height 33.2 cm) and barnyard grasses (Echinochloa oryzicola: division stage 1˜2, plant height 38.0 cm, Echinochloa crus-galli var. crus-galli: division stage 1˜2, plant height 44.1 cm) were subjected to a foliage treatment with emulsions prepared according to Formulation Example 3 by using compounds of Examples 1, 5 and 13 (purity: 99% or more), wherein the emulsions were sprayed to the plants at a dosage of the active compound of 150 g/ha.
(§5) The herbicidal effect on the barnyard grasses and harmful effect on the rice of the test compounds at 20 days and 30 days after the foliage treatment were visually evaluated as in Test Example 1 in comparison with the untreated control, and the results are shown in Table 9.

Echinochloa oryzicola = assay: as above; format: in vivo; settings: 150 g a.i./ha; emulsion of Formulation Example 3; division stage 1~2; 20 days after foliage treatment
Text: as §3, §4, §5

rice (Nampyung rice) = assay: Foliage treatment with emulsions, dry rice field conditions, harmful effect on rice (Test Example 2, Table 9); format: in vivo; settings: 6~6.5-leaf stage, 150 g a.i./ha, emulsion; for Harmful effect, 20 days: 20 days after foliage treatment; for Harmful effect, 30 days: 30 days after foliage treatment
Text: as §3

[11] = tested on: ORYSA (Oryza sativa cv. Dongjin, rice); assay: Weed control test, foliage treatment (Test Example 1, Table 7); settings: in vivo

| Structure (SMILES) | Plant damage (herbicidal activity), visually evaluated, GLXMA [1] | Plant damage (herbicidal activity), visually evaluated, TRZAW [2] | pest or weed control at 25 g/ha [3] | pest or weed control at 100 g/ha [3] | pest or weed control at 200 g/ha [3] | pest or weed control at 25 g/ha [4] | pest or weed control at 100 g/ha [4] | pest or weed control at 200 g/ha [4] | pest or weed control at 25 g/ha [5] | pest or weed control at 100 g/ha [5] | pest or weed control at 200 g/ha [5] | pest or weed control at 25 g/ha [6] | pest or weed control at 100 g/ha [6] | pest or weed control at 200 g/ha [6] | pest or weed control at 25 g/ha [7] | pest or weed control at 100 g/ha [7] | pest or weed control at 200 g/ha [7] | pest or weed control at 25 g/ha [8] | pest or weed control at 100 g/ha [8] | pest or weed control at 200 g/ha [8] | also measured |
| --- | --- | --- | --- | --- | --- | --- | --- | --- | --- | --- | --- | --- | --- | --- | --- | --- | --- | --- | --- | --- | --- |
| C[C@@H](Oc1ccc(Oc2nc3ccc(Cl)cc3o2)cc1)C(=O)Nc1nc2ccccc2s1 [Example 5, (R)-2-[4-(6-chloro-2-benzoxazolyloxy)phenoxy]propionic acid-N-(2-benzothiazolyl)amide] | 0% | 0% | 40% | 100% | 100% | 95% | 100% | 100% | 95% | 100% | 100% | 90% | 100% | 100% | 80% | 100% | 100% | 25% | 100% | 100% | plant injury at 25 g/ha [9]: 60%; plant injury at 100 g/ha [9]: 100%; plant injury at 200 g/ha [9]: 100%; Plant damage (herbicidal activity), visually evaluated, Rice (Rice): 0%; Plant damage (herbicidal activity), visually evaluated, Barnyard grass (Barnyard grass; 0.025 kg/ha): 70%; Plant damage (herbicidal activity), visually evaluated, Barnyard grass (Barnyard grass; 0.05 kg/ha): 95%; Plant damage (herbicidal activity), visually evaluated, Barnyard grass (Barnyard grass; 0.1 kg/ha): 100%; Plant damage (herbicidal activity), visually evaluated, Barnyard grass (Barnyard grass; 0.4 kg/ha): 100%; Herbicidal effect (0~100), 20 days, Echinochloa crus-galli var. crus-galli [10]: 100%; Herbicidal effect (0~100), 20 days, Echinochloa oryzicola (Echinochloa oryzicola): 100%; Harmful effect, 20 days (rice (Nampyung rice)): 0%; Harmful effect, 30 days (rice (Nampyung rice)): 0% |
| COc1ccc2nc(NC(=O)[C@@H](C)Oc3ccc(Oc4nc5ccc(Cl)cc5o4)cc3)sc2c1 [Example 13, (R)-2-[4-(6-chloro-2-benzoxazolyloxy)phenoxy]propionic acid-N-(6-methoxy-2-benzothiazolyl)amide] | 0% | 0% | 50% | 100% | 100% | 75% | 100% | 100% | 70% | 100% | 100% | 20% | 100% | 100% | 50% | 100% | 100% | 30% | 100% | 100% | plant injury at 25 g/ha [9]: 40%; plant injury at 100 g/ha [9]: 100%; plant injury at 200 g/ha [9]: 100%; Plant damage (herbicidal activity), visually evaluated, Barnyard grass (Barnyard grass; 0.025 kg/ha): 20%; Plant damage (herbicidal activity), visually evaluated, Barnyard grass (Barnyard grass; 0.05 kg/ha): 50%; Plant damage (herbicidal activity), visually evaluated, Barnyard grass (Barnyard grass; 0.1 kg/ha): 70%; Plant damage (herbicidal activity), visually evaluated, Barnyard grass (Barnyard grass; 0.4 kg/ha): 100%; Herbicidal effect (0~100), 20 days, Echinochloa crus-galli var. crus-galli [10]: 80%; Herbicidal effect (0~100), 20 days, Echinochloa oryzicola (Echinochloa oryzicola): 70%; Harmful effect, 20 days (rice (Nampyung rice)): 10%; Harmful effect, 30 days (rice (Nampyung rice)): 0% |
| COc1ccc2nc(N(C)C(=O)[C@@H](C)Oc3ccc(Oc4nc5ccc(Cl)cc5o4)cc3)sc2c1 [Example 14, (R)-2-[4-(6-chloro-2-benzoxazolyloxy)phenoxy]propionic acid-N-(6-methoxy-2-benzothiazolyl)-N-methyl amide] | 0% | 0% | 0% | 20% | 50% | 0% | 20% | 70% | 0% | 20% | 70% | 0% | 20% | 70% | 0% | 20% | 50% | 10% | 50% | 90% | Plant damage (herbicidal activity), visually evaluated, ORYSA [11]: 0%; plant injury at 25 g/ha [9]: 0%; plant injury at 100 g/ha [9]: 10%; plant injury at 200 g/ha [9]: 90%; Plant damage (herbicidal activity), visually evaluated, Rice (Rice): 0%; Plant damage (herbicidal activity), visually evaluated, Barnyard grass (Barnyard grass; 0.025 kg/ha): 0%; Plant damage (herbicidal activity), visually evaluated, Barnyard grass (Barnyard grass; 0.05 kg/ha): 0%; Plant damage (herbicidal activity), visually evaluated, Barnyard grass (Barnyard grass; 0.1 kg/ha): 10%; Plant damage (herbicidal activity), visually evaluated, Barnyard grass (Barnyard grass; 0.4 kg/ha): 50% |
